Test results reported in ChEMBL document CHEMBL5331122, “Structure-Activity Relationship Study of Antimicrobial Peptide PE2 Delivered Novel Linear Derivatives with Potential of Eradicating Biofilms and Low Incidence of Drug Resistance” (J Med Chem, 2023).
Values after ≈ are worked out from the molar mass of the structure shown. Active and inactive are the calls of the source. The rule behind the calls is not given here. Where a SMILES comes first, the peptide text is derived from it. Bridges are numbered along the chain shown (N, C = ends). [ ]: non-standard residue; d: D form. The star is where a group is joined. Heptanoyl(6-Me) = CC(C)CCCCC(=O)*; Dab = NCC[C@H](N)C(=O)O; Hexanoyl = CCCCCC(=O)*

How the values were obtained:
[1] = system: Pseudomonas aeruginosa; assay: Antibacterial activity against Pseudomonas aeruginosa ATCC 27853 assessed as bacterial growth inhibition incubated for 18 hrs by broth microdilution method; type: functional
[2] = Hemolytic activity in mouse red blood cells assessed as hemolysis at 256 microg/ml incubated for 1 hr relative to control; type: toxicity, cell-based, Erythrocyte; conditions: red blood cells (erythrocytes), at 256 µg/mL, read-out: Activity
[3] = system: Escherichia coli; assay: Antibacterial activity against Escherichia coli ATCC 25922 assessed as bacterial growth inhibition incubated for 18 hrs by broth microdilution method; type: functional
[4] = system: Enterococcus faecalis; assay: Antibacterial activity against Enterococcus faecalis ATCC 29212 assessed as bacterial growth inhibition incubated for 18 hrs by broth microdilution method; type: functional
[5] = system: Bacillus subtilis; assay: Antibacterial activity against Bacillus subtilis ATCC 23857 assessed as bacterial growth inhibition incubated for 18 hrs by broth microdilution method; type: functional
[6] = system: Staphylococcus aureus; assay: Antibacterial activity against Staphylococcus aureus ATCC 25923 assessed as bacterial growth inhibition incubated for 18 hrs by broth microdilution method; type: functional
[7] = system: Klebsiella pneumoniae; assay: Antibacterial activity against Klebsiella pneumoniae ATCC 700603 assessed as bacterial growth inhibition incubated for 18 hrs by broth microdilution method; type: functional
[8] = system: Erythrocyte; assay: Hemolytic activity in mouse red blood cell assessed as hemolysis incubated for 1 hr; type: toxicity, cell-based; conditions: dose 4-256 µg/ml
[9] = system: Staphylococcus aureus; assay: Antibacterial activity against Staphylococcus aureus ATCC 25923 assessed as fold increase in MIC in presence of KCl; type: functional
[10] = system: Escherichia coli; assay: Antibacterial activity against Escherichia coli ATCC 25922 assessed as fold increase in MIC in presence of FeCl3; type: functional
[11] = system: Escherichia coli; assay: Antibacterial activity against Escherichia coli ATCC 25922 assessed as fold increase in MIC in presence of KCl; type: functional
[12] = system: Staphylococcus aureus; assay: Antibacterial activity against Staphylococcus aureus ATCC 25923 assessed as fold increase in MIC in presence of MgCl2; type: functional
[13] = system: Escherichia coli; assay: Antibacterial activity against Escherichia coli ATCC 25922 assessed as fold increase in MIC in presence of MgCl2; type: functional
[14] = system: Escherichia coli; assay: Antibacterial activity against Escherichia coli ATCC 25922 assessed as fold increase in MIC in presence of NaCl; type: functional
[15] = system: Staphylococcus aureus; assay: Antibacterial activity against Staphylococcus aureus ATCC 25923 assessed as fold increase in MIC in presence of ZnCl2; type: functional
[16] = system: Escherichia coli; assay: Antibacterial activity against Escherichia coli ATCC 25922 assessed as fold increase in MIC in presence of ZnCl2; type: functional
[17] = system: Staphylococcus aureus; assay: Antibacterial activity against Staphylococcus aureus ATCC 25923 assessed as fold increase in MIC in presence of NaCl; type: functional
[18] = system: Staphylococcus aureus; assay: Antibacterial activity against Staphylococcus aureus ATCC 25923 assessed as fold increase in MIC in presence of FeCl3; type: functional
[19] = system: Staphylococcus aureus; assay: Induction of drug resistance against Staphylococcus aureus ATCC 25923 assessed as fold increase in MIC measured upto 15 passages by sequential passaging method; type: functional
[20] = system: Escherichia coli; assay: Induction of drug resistance against Escherichia coli ATCC 25922 assessed as fold increase in MIC measured upto 15 passages by sequential passaging method; type: functional
[21] = system: Escherichia coli; assay: Induction of drug resistance against Escherichia coli ATCC 25922measured after 5 to 7 passages by sequential passaging method; type: functional
[22] = system: Escherichia coli; assay: Antibacterial activity against rifampicin-resistant Escherichia coli ATCC 25922 assessed as reduction in bacterial growth incubated for 18 hrs by broth microdilution method; type: functional
[23] = system: Staphylococcus aureus; assay: Antibacterial activity against rifampicin-resistant Staphylococcus aureus ATCC 25923 assessed as reduction in bacterial growth incubated for 18 hrs by broth microdilution method; type: functional

Row | SMILES | MIC [1] | hemolysis at 1 h, 256 µg/mL [2] | MIC [3] | MIC [4] | MIC [5] | MIC [6] | MIC [7] | HC10 [8] | further results
1 | CCCCCC(=O)N[C@@H](CCN)C(=O)N[C@H](C(=O)N[C@@H](CCN)C(=O)N[C@H](Cc1ccccc1)C(=O)N[C@@H](CC(C)C)C(=O)N[C@@H](CCN)C(=O)N[C@@H](C(=O)N[C@@H](CC(C)C)C(=O)N[C@@H](Cc1ccc(O)cc1)C(N)=O)C(C)C)[C@@H](C)CC | 16 µg/mL (≈ 13.7 µM) | < 5% | 4 µg/mL (≈ 3.43 µM) | 64 µg/mL (≈ 55 µM) | 4 µg/mL (≈ 3.43 µM) | 16 µg/mL (≈ 13.7 µM) | 8 µg/mL (≈ 6.87 µM) | 512 µg/mL | 
2 | CCCCCC(=O)N[C@@H](CCN)C(=O)N[C@H](C(=O)N[C@@H](CCN)C(=O)N[C@H](Cc1ccccc1)C(=O)N[C@@H](CC(C)C)C(=O)N[C@@H](CCN)C(=O)N[C@@H](C(=O)N[C@@H](CC(C)C)C(=O)N[C@@H](CO)C(N)=O)C(C)C)[C@@H](C)CC (Hexanoyl-[Dab]I[Dab][dF]L[Dab][dV]LS-NH2) | 4 µg/mL (≈ 3.68 µM) | < 5% | 32 µg/mL (≈ 29.4 µM) | 128 µg/mL (≈ 118 µM) | 8 µg/mL (≈ 7.35 µM) | 64 µg/mL (≈ 58.8 µM) | 64 µg/mL (≈ 58.8 µM) | 512 µg/mL | 
3 | CCCCCC(=O)N[C@@H](CCN)C(=O)N[C@H](C(=O)N[C@@H](CCN)C(=O)N[C@H](Cc1ccccc1)C(=O)N[C@@H](CC(C)C)C(=O)N[C@@H](CCN)C(=O)N[C@@H](C(=O)N[C@@H](CC(C)C)C(=O)N[C@@H](C)C(N)=O)C(C)C)[C@@H](C)CC | 4 µg/mL (≈ 3.73 µM) | < 5% | 32 µg/mL (≈ 29.8 µM) | > 128 µg/mL | 8 µg/mL (≈ 7.46 µM) | 64 µg/mL (≈ 59.7 µM) | 64 µg/mL (≈ 59.7 µM) | 512 µg/mL | 
4 | CCCCCC(=O)N[C@@H](CCN)C(=O)N[C@H](C(=O)N[C@@H](CCN)C(=O)N[C@H](Cc1ccccc1)C(=O)N[C@@H](CC(C)C)C(=O)N[C@@H](CCN)C(=O)N[C@@H](C(=O)N[C@@H](CC(C)C)C(=O)N[C@@H](Cc1ccccc1)C(N)=O)C(C)C)[C@@H](C)CC | 4 µg/mL (≈ 3.48 µM) | < 5% | 16 µg/mL (≈ 13.9 µM) | 64 µg/mL (≈ 55.7 µM) | 4 µg/mL (≈ 3.48 µM) | 16 µg/mL (≈ 13.9 µM) | 32 µg/mL (≈ 27.9 µM) | 512 µg/mL | 
5 | CCCCCC(=O)N[C@@H](CCN)C(=O)N[C@H](C(=O)N[C@@H](CCN)C(=O)N[C@H](Cc1ccccc1)C(=O)N[C@@H](CC(C)C)C(=O)N[C@@H](CCN)C(=O)N[C@@H](C(=O)N[C@@H](CC(C)C)C(=O)N[C@@H](Cc1c[nH]c2ccccc12)C(N)=O)C(C)C)[C@@H](C)CC | 4 µg/mL (≈ 3.37 µM) | < 5% | 16 µg/mL (≈ 13.5 µM) | 32 µg/mL (≈ 26.9 µM) | 4 µg/mL (≈ 3.37 µM) | 8 µg/mL (≈ 6.74 µM) | 32 µg/mL (≈ 26.9 µM) | 512 µg/mL | 
6 | CC(C)CCCCC(=O)N[C@@H](CCN)C(=O)N[C@H](C(=O)N[C@@H](CCN)C(=O)N[C@H]1CCNC(=O)[C@H]([C@@H](C)O)NC(=O)[C@H](CCN)NC(=O)[C@H](CCN)NC(=O)[C@H](CC(C)C)NC(=O)[C@@H](Cc2ccccc2)NC(=O)[C@H](CCN)NC1=O)[C@@H](C)O ({Heptanoyl(6-Me)}-[Dab]T[Dab][Dab][Dab][dF]L[Dab][Dab]T; lactam 4-C) | 2 µg/mL (≈ 1.68 µM) |  | < 1 µg/mL | 128 µg/mL (≈ 108 µM) | 8 µg/mL (≈ 6.73 µM) | 16 µg/mL (≈ 13.5 µM) | 4 µg/mL (≈ 3.36 µM) |  | fold change (FC) [9]: 4; fold change (FC) [10]: <=2; fold change (FC) [11]: <=2; fold change (FC) [12]: 4; fold change (FC) [13]: <=2; fold change (FC) [14]: <=2; fold change (FC) [15]: 4; fold change (FC) [16]: <=2; fold change (FC) [17]: 4; fold change (FC) [18]: 4
7 | CO[C@H]1/C=C/O[C@@]2(C)Oc3c(C)c(O)c4c(O)c(c(/C=N/N5CCN(C)CC5)c(O)c4c3C2=O)NC(=O)/C(C)=C\C=C\[C@H](C)[C@H](O)[C@@H](C)[C@@H](O)[C@@H](C)[C@H](OC(C)=O)[C@@H]1C [RIFAMPIN] | 32 µg/mL (≈ 38.9 µM) |  | 4 µg/mL (≈ 4.86 µM) | < 1 µg/mL | < 1 µg/mL | < 1 µg/mL | 32 µg/mL (≈ 38.9 µM) |  | fold change (FC) [19]: 512; fold change (FC) [20]: 64; Activity [21]: Active; MIC [22]: 4100 µg/mL (≈ 4980 µM); MIC [23]: 2050 µg/mL (≈ 2490 µM)
8 | CCCCCC(=O)N[C@H]1CCNC(=O)[C@H]([C@@H](C)O)NC(=O)[C@H](CC(C)C)NC(=O)[C@@H](C(C)C)NC(=O)[C@H](CCN)NC(=O)[C@H](CC(C)C)NC(=O)[C@@H](Cc2ccccc2)NC(=O)[C@H](CCN)NC(=O)[C@H]([C@@H](C)CC)NC1=O | > 128 µg/mL | < 5% | 32 µg/mL (≈ 29.5 µM) | > 128 µg/mL | 128 µg/mL (≈ 118 µM) | > 128 µg/mL | 64 µg/mL (≈ 59 µM) | 512 µg/mL | 
